For assay [1], the target named is T1, Adenosylmethionine-8-amino-7-oxononanoate aminotransferase (Mycobacterium tuberculosis, UniProt P9WQ81).
T1 sequence (P9WQ81 whole entry): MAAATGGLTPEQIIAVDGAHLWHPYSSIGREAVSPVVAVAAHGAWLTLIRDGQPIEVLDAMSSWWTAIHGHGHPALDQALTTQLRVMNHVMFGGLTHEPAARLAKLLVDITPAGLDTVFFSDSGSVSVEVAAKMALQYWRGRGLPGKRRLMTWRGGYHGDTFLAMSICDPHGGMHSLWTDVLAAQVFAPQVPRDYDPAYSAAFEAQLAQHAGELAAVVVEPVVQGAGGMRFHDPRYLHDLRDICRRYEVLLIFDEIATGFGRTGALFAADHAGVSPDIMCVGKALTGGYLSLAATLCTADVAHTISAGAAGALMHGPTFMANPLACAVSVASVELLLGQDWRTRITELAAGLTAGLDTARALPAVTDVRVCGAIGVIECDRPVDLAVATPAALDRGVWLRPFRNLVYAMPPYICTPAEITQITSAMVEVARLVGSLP
Put plainly: Mycobacterium tuberculosis BioA enzyme inhibitor Measured in Biochemical System Using Plate Reader - 2163-02_Inhibitor_Dose_CherryPick_Activity. It counts as functional, Mycobacterium tuberculosis UT205.

A short description of assay [2]: cytotoxicity in OVCAR8 ovarian cancer cells, dose response, PAX8 project, cell-based, plate reader, dry powder samples (AID 743197). The format is functional. The following applies: OVCAR-8.
In another assay the target is Paired box protein Pax-8 (Homo sapiens, UniProt Q06710). Put plainly: inhibitors of PAX8-driven TPO luciferase reporter, dose response, RMG-I cells, cherry-pick (AID 687027).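 Note: luciferase reporter driven by Pax8 target thyroperoxidase promoter measured by SteadyGlo luminescence.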 The format is functional, cell-based.
Sequence of Paired box protein Pax-8 (Q06710 whole entry): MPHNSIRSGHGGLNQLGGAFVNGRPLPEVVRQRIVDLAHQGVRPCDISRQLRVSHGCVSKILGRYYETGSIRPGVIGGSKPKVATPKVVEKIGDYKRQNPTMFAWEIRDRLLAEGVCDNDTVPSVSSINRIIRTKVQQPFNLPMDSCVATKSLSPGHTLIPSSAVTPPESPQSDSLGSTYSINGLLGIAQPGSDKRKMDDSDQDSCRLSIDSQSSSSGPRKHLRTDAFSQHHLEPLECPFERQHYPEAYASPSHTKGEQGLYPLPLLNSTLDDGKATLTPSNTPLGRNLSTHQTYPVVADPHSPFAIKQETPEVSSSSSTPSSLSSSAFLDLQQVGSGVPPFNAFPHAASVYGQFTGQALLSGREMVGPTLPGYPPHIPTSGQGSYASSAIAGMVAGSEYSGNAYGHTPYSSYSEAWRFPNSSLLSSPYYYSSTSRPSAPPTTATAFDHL
A short description of assay [3]: IGROV1 ovarian cancer cell cytotoxicity, dose response, PAX8 inhibitor project, plate reader, dry powder samples (AID 743043). The format is functional, cell-based. The following applies: IGROV-1.
A short description of assay [4]: NIH:OVCAR-3 ovarian cancer cell cytotoxicity, dose response, PAX8 inhibitor project, plate reader, dry powder samples (AID 743044). The format is functional, cell-based.
Assay [5] is described as follows: HeLa 4N DNA content increase, dose response, cell-based, IC50 (AID 1117351). It counts as functional.
A short description of assay [6]: HeLa 2N DNA content increase, dose response, cell-based, IC50 (AID 1117349). The format is functional.
A short description of assay [7]: T. cruzi growth inhibition in host cells, dose response, cell-based, plate reader, dry powder, set 2 (AID 652275). The format is functional.
A short description of assay [8]: HepG2 cell cytotoxicity, dose response, cytotoxicity control, cherry-picked samples (AID 1159577). The format is functional, cell-based.
A short description of assay [9]: P. falciparum Dd2 growth inhibitors, dose response, SYBR Green, dry powder samples (AID 1159566).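 Note: potency for growth inhibition with lower SYBR green DNA signal.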 It counts as functional, cell-based.
The nature of assay [10]: P. falciparum 3D7-ScDHODH growth inhibitors, dose response, SYBR Green, dry powder samples (AID 1159570).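 Note: parasite growth measured after 72 hours of compound exposure.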 It counts as functional, cell-based.
Assay [11] can be described thus: P. falciparum Dd2 growth inhibitors, dose response, SYBR Green, cherry-picked samples (AID 1159567). The format is functional, cell-based.
Assay [12] can be described thus: P. falciparum ATP4 D1247Y mutant growth inhibitors, dose response, NITD609-resistant line, SYBR Green, dry powder (AID 1159571).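 Note: parasites synchronized at ring stage by sorbitol before testing.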 The format is functional, cell-based.
Assay [13] can be described thus: HepG2 cell cytotoxicity, dose response, cytotoxicity control, plate reader, dry powder samples (AID 1159569).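 Note: inhibitor potency with signal falling toward the positive control level.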 It counts as functional, cell-based.
The nature of assay [14]: HCT116 cell viability decrease, GSK3B pretreatment – CellTiter-Glo, IC50, dose response (AID 1117339). The following applies: HCT-116. The format is functional.
Assay [15] can be described thus: cytotoxicity toward Colo320 cells – cell-based, CellTiter-Glo luminescence, IC50, dose response (AID 1117334). It counts as functional. Conditions: COLO 320.
The nature of assay [16]: RKO cell viability reduction, dose response, CellTiter-Glo luminescence (AID 1117322). The format is functional.
A short description of assay [17]: cytotoxicity toward HT-29 cells – cell-based, CellTiter-Glo luminescence, IC50, dose response (AID 1117330). The format is functional.
The nature of assay [18]: CellTiter-Glo luminescent dose response of DLD-1 viability loss (AID 1117352). It counts as functional.
Assay [19] can be described thus: SNU-C1 cell viability reduction, dose response, CellTiter-Glo luminescence (AID 1117323). It counts as functional, cell-based.
Assay [20] in a line: Concentration-dependent survival of SW480 colon cancer line, luminescence detection with CellTiter-Glo, half-maximal inhibitory concentration (AID 1117338). The format is functional.
Assay [21] in a line: cytotoxicity toward HCT116 cells – cell-based, CellTiter-Glo luminescence, IC50, dose response (AID 1117332). The format is functional. Conditions: HCT-116.
In a further assay the test system is SN12K1. Put plainly: cells. The format is functional. The following applies: Homo sapiens.
The test system of a further assay is P388/ADR. Put plainly: cells. The format is functional. Conditions: Mus musculus.
In the next assay the test system is P388. Put plainly: cells. The format is functional. Conditions: Mus musculus.

Experimental findings from ChEMBL document CHEMBL1201862, “PubChem BioAssay data set” (2004) are described below.

The source made the active and inactive calls.

Consider `COc1ccc(-c2ccc3c(c2)[C@H]2[C@H](CCN2C(=O)Cc2cccnc2)[C@H](CO)N3C)cc1`, for which the AC50 in assay [1] is 1.57 µM (active); in [2] it was > 70 µM (inactive).
As to `C[C@@H]1CCCCO[C@H](CN(C)Cc2ccc(C(F)(F)F)cc2)[C@@H](C)CN([C@@H](C)CO)C(=O)c2cc(NC(=O)Cc3ccccc3)ccc2O1`, the AC50 was 9.25 µM (active) at Paired box protein Pax-8, 64.6 µM (active) in assay [3] and 35.2 µM (active) in assay [4].
As to `CCCCCCCCCCOCC(O)CN` (stereo not drawn), the IC50 in assay [5] and in [6] was > 10 µM (inactive) in each case.
`C[C@@H]1CCCCO[C@H](CN(C)C(=O)Nc2ccc(C(F)(F)F)cc2)[C@@H](C)CN([C@@H](C)CO)C(=O)c2cc(NS(=O)(=O)c3ccc(F)cc3)ccc2O1`: the values for the AC50 (at Paired box protein Pax-8; in assay [2]) were 4.88 µM (active) and > 70 µM (inactive), respectively.
With `C[C@H]1CN([C@@H](C)CO)C(=O)c2cccc(NC(=O)c3ccncc3)c2O[C@@H]1CN(C)Cc1cccc(Cl)c1`, the AC50 in assay [7] is 0.0155 µM (active).
`COc1ccccc1NC(=O)N1CCCCN2[C@H](CO)[C@H](c3ccc(C#CC4CC4)cc3)[C@H]2C1`: the AC50 is 20.3 µM (active) in assay [8]; 1.2 µM (active) in [9]; 1.74 µM (active) in assay [10]; 2.69 µM (active) in assay [11]; 1.74 µM (active) in assay [12]; 18.4 µM (active) in [13].
As to `C/C=C/c1ccc([C@H]2[C@@H](CO)N(c3nc(C)c(C)s3)[C@@H]2CNCC(C)C)cc1`, the AC50 in assay [8] was > 39 µM (inactive); in assay [9] it was 0.227 µM (active); in assay [10], 0.915 µM (active); in assay [11], 0.861 µM (active); in assay [12], 0.473 µM (active); in [13], 44.1 µM (active).
Take `Cc1cccc(C)c1NC(=O)CC12CCCN1CCC2` [PILSICAINIDE]: the IC50 in assay [14], in assay [15], in [16], in assay [17], in [18] and in assay [19] was > 20 µM (inactive) each time. Moreover, the IC50 in [20] and in assay [21] was > 20 µM (inactive) throughout.
Turning to `OC[C@H]1O[C@@H](n2cnc3c(S)ncnc32)[C@H](O)[C@@H]1O` [THIOINOSINE], the GI50 is 1780 µM (inactive) in the assay with SN12K1, 1140 µM (inactive) in the assay with P388/ADR and 1240 µM (inactive) in the assay with P388. Besides, the IC50 was 0.504 µM (active) in assay [14]; 1.06 µM (active) in [15]; 0.0144 µM (active) in assay [16]; 0.118 µM (active) in assay [17]; 0.063 µM (active) in assay [18]; > 10 µM (inactive) in [5]. For the same compound, the IC50 in assay [19] was 2.19 µM (active); in [6] it was > 10 µM (inactive); in assay [20] it was 0.0287 µM (active); in assay [21], 0.0286 µM (active).
